Measurements: patent US20050250837A1, “Use of C-Raf inhibitors for the treatment of neurodegenerative diseases” (priority 2002, published 2005)
Values belong to the compound of their own block, whether it stands above or below them.

Key:
[1] = system: cerebellar granule neurons; assay: LK-induced apoptosis of cultured cerebellar granule neurons (MTT viability); format: cell-based, rat; conditions: for effect of MEK inhibitor on neuroprotection by GW5074: LK + 1 uM GW5074 with 40 uM PD98059 or 10 uM U0126
Experimental: Cultured cerebellar granule neurons undergo apoptosis when switched from HK to medium containing LK (D'Mello et al., 1993). […] Neuronal cultures were switched to medium containing LK, or LK medium containing different doses of GW5074. Cell viability was quantified 24 hours later. Control cultures received HK medium. […] Protection against LK-induced apoptosis is maximal at 1 uM.
Granule neuron cultures were obtained from dissociated cerebella of 7-8 day old rats as described previously (D'Mello et al., 1993). Cells were plated in Basal Eagle's Medium with Earles salts (BME) supplemented with 10% fetal bovine serum (FBS), 25 mM KCl, 2 mM glutamine (Gibco-BRL), and 100 ug/ml gentamycin on dishes coated with poly-L-lys ine in 24-well dishes at a density 1.0×10^6 cells/well, 1.2×10^7 cells/60 mm dish, or 3.0×10^7 cells/100 mm dish. Cytosine arabinofuranoside (10 uM) was added to the culture medium 18-22 hours after plating to prevent replication of non-neuronal cells. Cultures were maintained for 6-7 days prior to experimental treatments. For this, the cells were rinsed once and then maintained in low K^+ medium (serum-free BME medium, 5 mM KCl) or high K^+ medium (serum-free BME medium, supplemented with 20 mM KCl). When used to treat cultures, GW5074 was added at the time when cells were switched to LK medium. Treatment of cultures with pharmacological inhibitors was initiated 15 min prior to rinsing and was maintained through the subsequent incubation in LK or HK medium unless specified otherwise. For MPP+ and methylmercury treatments, 7-8 day old cultures were switched to HK medium containing 200 uM MPP+ or 0.5 uM methylmercury. Viability was assayed 24 hours later.
Neuronal survival was quantified by the MTT assay as previously described (Koulich et al., 2001). Briefly, the tetrazolium salt MTT [3-(4,5-dimethyl-2-thiazolyl)-2,5-diphenyl-2H tetrazolium bromide] was added to the cultures at a final concentration of 1 mg/ml, and incubation of the culture was continued in the CO2 incubator for a further 30 min at 37° C. The assay was stopped by adding lysis buffer [20% SDS in 50% N,N-dimethyl formamide, pH 4.7]. The absorbance was measured specrophotometrically at 570 nm after an overnight incubation at room temperature. The absorbance of a well without cells was used as background and subtracted. Results obtained using the MTT assays were confirmed using the fluorescein-diacetate method for quantification of cell viability, as previously described (D'Mello et al., 1993). Data are presented as mean+/−standard deviation. Statistical analysis was performed using ANOVA and Student-Neuman-Keuls' test.

ERK 1/2 = ERK 1/2 phosphorylation in neuronal cultures, Western blot; format: cell-based, rat; conditions: LK + 1 uM GW5074 + 40 uM PD98059, 1 hour
From the text: Activation of all three Raf proteins results in activation of MEK and ERK.
Survival of cerebellar granule neurons can be maintained by BDNF and this effect of BDNF is mediated by the Raf-MEK-ERK signaling pathway (Bonni et al., 1999). The Raf-MEK-ERK pathway is also involved in promoting survival of other neuronal and normeuronal cell types. A potent blocker of the Raf-MEK-ERK pathway is PD98059 (Alessi et al., 1995). In paradigms in which the Raf-MEK-ERK pathway mediates neuronal survival, such as BDNF-treated cerebellar granule neurons, the presence of […] blocks survival (Bonni et al., 1999). […] Lysates from the cultures were subjected to Western blotting using an antibody specific for phospho-ERK.
(§1) For whole-cell lysates, the culture medium was discarded, the neurons washed twice with ice-cold phosphate-buffered saline (PBS), and lysed in lysis buffer (1% Triton, 20 mM Tris-HCl (pH 7.5), 150 mM NaCl, 1 mM Na2EDTA, 1 mM EGTA, 2.5 mM sodium pyrophosphate, 1 mM beta-glycerophosphate, 1 mM Na3VO4, 1 μg/ml leupeptin and 1× protease inhibitor mixture). Protein concentrations were measured using a Bradford protein assay kit (Bio-Rad), and equivalent amounts of protein were mixed with 6×SDS-PAGE sample buffer. […] After staining with Ponceau S to verify uniformity of protein loads/transfer, the membranes were analyzed for immunoreactivity. […]

C-Raf = molecular target: T1, C-Raf (Rattus norvegicus, UniProt P11345); assay: Activity of C-Raf immunoprecipitated from neuronal lysates, GST-MEK substrate, phospho-MEK Western; format: cell-based
T1 construct: Activities of endogenous C-Raf and B-Raf activity was assayed by measuring the ability of kinase immunoprecipitated from neuronal lysates; endogenous in cells; host or cells: primary rat cerebellar granule neurons
Experimental: The immunoprecipitated C-Raf was used in in vitro kinase assays using GST-MEK as substrate and the reaction products subjected to Western analysis. Phosphorylation of MEK was detected using a phospho-MEK antibody. […] After 1 hour of treatment, the cultures were lysed, C-Raf immunoprecipitated from the lysate and used in an in vitro kinase assay with MEK as substrate. The reaction mixture was subjected to Western analysis using a phospho-MEK antibody as probe.
(Hall-Jackson et al., 1999). […] Lysates from the cultures were used in a kinase reaction with MEK as substrate. […] Phosphorylation of MEK was detected by Western blot analysis using an phospho-MEK antibody and the same blot was reprobed with a C-Raf antibody.
After treatment, cultures of 7-8-day old neurons were washed twice with ice-cold PBS and lysed in ice cold lysis buffer. The lysates were centrifuged for 10 min at 10,000 rpm at 4° C. Protein concentrations of the supernatant were measured using a Bradford protein assay kit (Bio-Rad), and equivalent amounts of protein were incubated overnight with primary antibody (1.0-2 ug) and then for 2 h with 20 ul Protein A/G PLUS-Agarose (Santa Cruz Biotech.) Immunoprecipitates were collected by centrifugation at 2,500 rpm for 5 min at 4° C. and washed three times with lysis buffer, and pellets resuspended in electrophoresis sample buffer (187.5 mM Tris-HCl (pH 6.8 at 25° C.), 6% SDS, 30% glycerol, 150 mM DTT, 0.03% bromophenol blue), boiled for 4 min and subjected to SDS-polyacrylamide gel electrophoresis.
Activities of endogenous C-Raf and B-Raf activity was assayed by measuring the ability of kinase immunoprecipitated from neuronal lysates to phosphorylate a kinase-dead recombinant GST-MEK1 substrate. Following immunoprecipitation and multiple washes with lysis buffer, lysis buffer supplemented with 350 mM NaCl, and kinase buffer (25 mM HEPES pH 7.4 and 10 mM MgCl2), in vitro kinase assays are performed on the immune complexes using purified recombinant GST-MEK1 K97M protein as a substrate in kinase buffer supplemented with 85 μM ATP for 35 minutes at 30° C. Reactions are stopped by the addition of 3×SDS sample buffer and boiled for five minutes. Proteins are resolved by SDS-PAGE and subjected to Western blotting. The level of phosphorylated MEK is detected by a phospho-MEK antibody.

Akt = Akt phosphorylation (Ser473) in neuronal cultures, Western blot; format: cell-based, rat; conditions: added to cultures already switched to LK
Experimental: The best-studied anti-apoptotic pathway in neurons is the PI-3 kinase—Akt signaling pathway (D'Mello et al., 1997; Dudek et al., 1997; Miller et al, 1997a). IGF-1, a potent survival-promotic factor for granule neurons mediates its effect by activating the PI-3 kinase-Akt pathway (Datta et al., 1997; Dudek et al., 1997; D'Mello et al., 1998). […] Switching cerebellar granule neurons from serum-containing HK medium in which they are cultured and allowed to mature, to serum-free LK or HK medium, causes a rapid downregulation of Akt phosphorylation and activity, which can be prevented by IGF-1 (Kumari et al., 2001). […] The same blot was reprobed with an antibody against phospho-Gskβ. Also loaded on the gel were lysates from untreated cultures (maintained in medium containing serum and high K+) and a culture treated for 1 hour with 25 ng/ml IGF-1. […] GSK3βis a proapoptotic molecule that is activated during apoptosis in many neuronal and normeuronal systems. Under survival promoting conditions GSK3β is kept inactivated by phosphorylation, a modification that can be induced by Akt. […] Another proapoptotic molecule that is phosphorylated and inactivated by Akt is the transcription factor, Forkhead (Linseman et al., 2002). […] Switching of neurons to LK medium leads to a rapid downregulation of Akt activity within 2 hours.
as §1

[2] = system: cerebellar granule neurons; assay: Apoptosis of neurons infected with adenoviral dominant-negative Akt; format: cell-based, rat; conditions: LK + 1 uM GW5074 or 25 ng/ml IGF-1
From the text: Five day old neuronal cultures were infected with adenoviral vectors expressing either GFP or hemagluttinin (HA)-tagged dominant-negative Akt. […] Infected neurons were detected by positive staining for GFP or HA by immunocytochemistry. The proportion of apoptotic cells (condensed or fragmented nuclei) as a percentage of total infected neurons was quantified following DAPI-staining.
DnAkt and control recombinant adenovirus expressing green fluorescent protein (Ad-GFP) are propagated in HEK293T cells and purified by cesium chloride density gradient centrifugation. After quantification of titer, virus at an MOI of 10 are used to infect granule neuron cultures 5 days after plating by direct addition to the medium. Treatments are performed 24 hours after addition of virus.

T1 sequence (P11345 whole entry): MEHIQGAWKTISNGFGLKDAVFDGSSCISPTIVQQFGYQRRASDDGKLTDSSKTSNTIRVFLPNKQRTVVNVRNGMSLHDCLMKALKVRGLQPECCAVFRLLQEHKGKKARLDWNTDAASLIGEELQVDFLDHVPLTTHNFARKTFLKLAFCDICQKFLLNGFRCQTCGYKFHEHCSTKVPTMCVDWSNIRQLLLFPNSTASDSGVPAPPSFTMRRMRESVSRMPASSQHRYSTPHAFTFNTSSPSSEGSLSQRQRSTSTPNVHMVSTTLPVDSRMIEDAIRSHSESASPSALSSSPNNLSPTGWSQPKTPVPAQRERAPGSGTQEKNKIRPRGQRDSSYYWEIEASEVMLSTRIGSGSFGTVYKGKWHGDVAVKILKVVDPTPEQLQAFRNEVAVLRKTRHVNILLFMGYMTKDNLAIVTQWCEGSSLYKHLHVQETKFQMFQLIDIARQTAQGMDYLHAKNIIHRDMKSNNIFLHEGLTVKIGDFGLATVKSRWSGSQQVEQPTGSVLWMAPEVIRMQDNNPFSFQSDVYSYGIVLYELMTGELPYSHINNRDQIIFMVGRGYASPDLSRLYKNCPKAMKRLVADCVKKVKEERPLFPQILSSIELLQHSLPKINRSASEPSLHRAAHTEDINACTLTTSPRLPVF

Compound: CC(C)=CCC/C(C)=C/CC/C(C)=C/CSc1ccccc1C(=O)O [FTS, S-trans, trans-farnesylthiosalicylic acid]
- effect of Ras antagonist on neuroprotection by GW5074 ([1]; LK + 1 uM GW5074 + 10 uM FTS, 24 hour): blocks the neuroprotective effect of GW5074

Compound: COc1cccc(-c2cc(=O)c3ccccc3o2)c1N [PD98059, reference compound]
- effect on stimulation of ERK by GW5074 (ERK 1/2): blocks the stimulation of ERK by GW5074
- effect of MEK inhibitor on neuroprotection by GW5074 [1]: no effect on the neuroprotective effect of GW5074

Compound: N#CC(=C(/N)Sc1ccccc1N)/C(C#N)=C(\N)Sc1ccccc1N [U0126]
- effect of MEK inhibitor on neuroprotection by GW5074 [1]: failed to reduce survival by GW5074

- effect on immunoprecipitated C-Raf when added in vitro (C-Raf; 10 uM ZM336372 added to kinase reaction mixture): inhibited in vitro by ZM336372
- activity of C-Raf immunoprecipitated from treated cultures (C-Raf; LK + 50 uM ZM336372, 1 hour): elevated activity
Compound: Cc1ccc(NC(=O)c2cccc(N(C)C)c2)cc1NC(=O)c1ccc(O)cc1 [ZM336372, N-[5-(3-Dimethylaminobenzamido)-2-methylphenyl]-4-hydroxybenzamide, reference compound]
- inhibition of LK-mediated apoptosis ([1]; LK medium containing 100 uM ZM336372): inhibits LK-mediated apoptosis

Compound: IGF-1: a potent survival-promotic factor for granule neurons
- de novo Akt activation after downregulation in LK (Akt): robust increase in Akt phosphorylation
- effect of dominant-negative Akt on survival promotion [2]: reduces the survival-promoting effect of IGF-1
